Read-outs that look alike come from different tables or passages of the source.
Target: T1, human DHO-DH (Homo sapiens, UniProt Q02127)
T1 construct: The spleen tissue was chopped and then homogenized with a teflon glass homogenizer; from tissue; host or cells: human spleen, crude membrane preparation
Test: Dihydroorotate Dehydrogenase (DHO-DH) Assay: DCIP-linked inhibition of human spleen membrane DHO-DH
Type: biochemical
Conditions: human spleen membranes, 90 min preincubation at 37° C., pH 8.0, 500 μM dihydroorotate, 100 μM coenzyme Q10, 200 μM DCIP, loss of absorbance at 650 nm
Source text: Human spleen membrane DHO-DH catalyzed conversion of dihydroorotate to orotate is accompanied by reduction of coenzyme Q10. Reoxidation of coenzyme Q10 is linked to reduction of dichlorophenolindophenol and is monitored as a loss of absorbance at 650 nm. The rate of loss in absorbance is a direct measurement of the rate of the DHO-DH enzyme catalyzed reaction.
Crude membrane preparations were made using a modification of a published differential centrifugation procedure. All procedures were carried out on ice or at a temperature of 4° C. using pre-cooled buffers and equipment.
The spleen tissue was chopped and then homogenized with a teflon glass homogenizer (about 10 passes at 250 rpm) in 10 volumes of a homogenization buffer (10 mM Tris-HCl containing 0.25M sucrose, 10 μg/ml soybean trypsin inhibitor, 2 μg/ml aprotinin, pepstatin A and leupeptin pH 7.4). The homogenate was centrifuged at ^~ 470 g for 10 minutes and the supernatant was saved. Pellets were resuspended in 4-6 volumes of homogenization buffer using 5 passes of the teflon glass homogenizer (250 rpm) and centrifuged for 10 minutes at ^~ 470 g. The supernatant was combined with that from the first centrifugation step (post nuclear fraction) and the pellets containing nuclei and tissue debris were discarded. The post nuclear supernatant was centrifuged at 125,000 g for 40 minutes. The pellets were resuspended in homogenization buffer (2 ml/g wet tissue) using about 10 passes of the teflon glass homogenizer. Aliquots of the preparation were stored at -80° C.
Membranes (0.33-0.5 mg protein) were incubated with 100 μM coenzyme Q10 in 50 mM Tris-HCl, 0.1% Triton X-100, 1 mM KCN pH 8.0. Following a 90 minute preincubation at 37° C., the reaction was initiated by addition of 500 μM of dihydroorotate and the reduction of DCIP (200 μM) was monitored by loss of absorbance at 650 nm using a 96-well plate reader at 37° C. Drug concentrations increased in half log unit or full log unit intervals with each concentration tested at least in triplicate.

T1 sequence (Q02127 whole entry): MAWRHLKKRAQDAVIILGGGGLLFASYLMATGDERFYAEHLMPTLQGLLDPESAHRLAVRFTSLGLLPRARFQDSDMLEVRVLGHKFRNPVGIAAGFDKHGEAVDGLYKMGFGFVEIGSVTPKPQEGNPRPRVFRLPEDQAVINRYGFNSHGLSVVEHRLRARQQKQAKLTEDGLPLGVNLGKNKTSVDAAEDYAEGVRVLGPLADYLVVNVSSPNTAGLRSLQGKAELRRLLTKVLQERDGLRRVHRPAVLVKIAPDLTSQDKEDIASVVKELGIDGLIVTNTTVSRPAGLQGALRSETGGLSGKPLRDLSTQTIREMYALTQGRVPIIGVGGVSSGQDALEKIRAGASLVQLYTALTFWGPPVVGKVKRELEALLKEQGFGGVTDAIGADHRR

Row | SMILES | IC50 (read-out: IC50) [nM] | IC50 [nM]
1 | N#Cc1ccc(NC(=O)C(C#N)C(=O)C2CC2)cc1 (stereo not shown) [A] | 1950 to 2100 | –
2 | C#CC(=O)C(C#N)C(=O)Nc1ccc(C(F)(F)F)cc1 (stereo not shown) [B] | > 100 | –
3 | CC=CC(=O)C(C#N)C(=O)Nc1ccc(C(F)(F)F)cc1 (stereo not shown) [C] | – | 79.4
4 | N#CC(C(=O)Nc1ccc([S+]([O-])C(F)(F)F)cc1)=C(O)C1CC1 (stereo not shown) [Example 2, N-(4'-trifluoromethylsulfinyl-phenyl)-2-cyano-3-cyclopropyl-3-hydroxy-prop-2-enamide] | 300 | –

— patent publication US5693844A, “2-cyano-3-hydroxy-propenamides” (Roussel UCLAF, priority 1995, dated 1997)
